According to patent publication US20220202610A1, “CONTACT LENS WITH SUSTAINED RELEASE PROPERTY” (priority 2020, published 2022):

Experiments:
[1] = Release of lens drug (dexamethasone): drug loading, moist heat sterilization and release in saline, HPLC; type: physicochemical; details: 121° C., 30 minutes
Experimental: (§1) Sampling time point: 0, 2, 4 and 8 hours (N=3)
(1) Single drug-loaded lens was placed in a 5 mL ampoule. 1 mL of saline was added as a release medium. The lens was placed in a shake oven (MS Hybridization Shaking Oven, MO-AOR, Major Science), and a drug release test was conducted under the operating parameters of 35° C. and 100 rpm. The drug release solution was replaced with fresh saline every 2 hours.
(2) The drug content in the lens preservation solution and the drug content in the lens were analyzed by HPLC with RP-C18 column. The extraction method of drug (Dexamethasone, DEX) in the lens: one lens was taken out of the preservation solution. Lens surface moisture was fully absorbed with a lens cleaning paper. The one lens was immersed in 1 mL of methanol to stand for 8 hours to extract the drug. Then the drug content was analyzed by HPLC.

[2] = Release of lens drug (menthol): drug loading, moist heat sterilization and release in saline, HPLC; type: physicochemical; details: 121° C., 30 minutes
Experimental: as §1
First group: P-2.5HPC7/P6k-38CL
(1) Single drug-loaded lens was placed in a 5 mL ampoule. 1 mL of saline was added as a release medium. The lens was placed in a shake oven (MS Hybridization Shaking Oven, MO-AOR, Major Science), and a drug release test was conducted under the operating parameters of 35° C. and 100 rpm. No release solution was replaced throughout. Sampling: the lens was taken out at each time point. The drug was extracted with ethanol (98 wt %). The drug content was analyzed by HPLC with RP-C18 column. After the lens was taken out, no drug release test was performed.
(2) The extraction method of menthol in the lens: one lens was taken out of the ampoule used for the release test. Lens surface moisture was fully absorbed with a lens cleaning paper. The one lens was immersed in 1 mL of ethanol (98 wt %) to stand for 8 hours to extract the drug. Then the drug content was analyzed by HPLC.

Row | SMILES | loss caused by the moist heat sterilization [1] | menthol in the lens preservation solution after the moist heat sterilization [2]
1 | Cn1c(=O)c2c(ncn2C)n(C)c1=O [caffeine] | hardly causes the loss | 
2 | CC1CCC(C(C)C)C(O)C1 (centres unmarked) [menthol] |  | most of the menthol in the lens preservation solution escapes
